Assay results: patent publication US8252588B2, “Stem cells having increased sensitivity to SDF-1 and methods of generating and using same” (Yeda Research and Development Co. Ltd., priority 2003, dated 2012)

Assays:
[1] = tested on: human CD34+ cells; experiment: Four hour homing of human CD34+ cells to the CCl4-injured liver of NOD/SCID mice; format: in vivo; details: non-irradiated NOD/SCID mice, 15 μl CCl4 24 hours prior, four hour assay
Protocol: (§1) Liver injury—Mice were injected intraperitoneally (IP) with 10, 15 or 30 μl/mouse of CCl4 and liver samples were collected within a few hours, or 1-2 days following injection, as indicated. In homing assays, mice were intraveneously (IV) transplanted with human MPB CD34^+ cells (0.6×10^6 cells/mouse) 4 hours prior to liver collection. Homing was blocked by preincubation of transplanted cells with 10 μg of anti CXCR4/mouse or by IP injection of 100 μg/mouse of a specific MMP2/9 inhibitor III (CalBiochem, catalogue #444251). Human progenitors in the blood circulation of engrafted mice transplanted a month before with human CB MNC (20×10^6 cells/mouse) were quantified by seeding 2×10^5 mononuclear cells/ml in colony forming unit assay as described [Kollet (2001) Blood 97:3283-3291]. CXCR4 expression was determined by flow cytometry.

[2] = tested on: CXCR4; experiment: Human CXCR4 staining of peripheral blood MNC of chimeric mice, flow cytometry; format: in vivo; details: CCl4 treated chimeric mice
Protocol: as §1

[3] = tested on: MMP-2/9; experiment: Zymography assay of MMP-2/9 activity in liver of CCl4 injected mice; format: in vivo; details: CCl4 treated NOD/SCID mice
[4] = tested on: human colony forming progenitors; experiment: Human progenitors in blood circulation of engrafted mice, colony forming unit assay; format: in vivo; details: engrafted NOD/SCID mice, one day after single injection of 10 μl CCl4
Protocol: Data summarize three independent experiments.
as §1

[5] = tested on: human CD34+ cells; experiment: Four hour homing of CD34+ cells to the liver of non-irradiated mice, local hepatic injection of human SDF-1; format: in vivo; details: non-irradiated NOD/SCID, human SDF-1 injected into hepatic parenchyma, IV infusion of cells
Protocol: FIG. 1a is a histogram showing inhibition of homing of human CB or MPB enriched CD34^+ cells to the murine BM, spleen and liver by neutralizing CXCR4 antibodies. Data presents inhibition as percentage of control. P≦0.008, comparing anti CXCR4 treated samples to control counterparts. […] Human SDF-1 was injected to the liver parenchyma as indicated. Cells were collected from the injected lobe to determine the homing of human CD34^+ cells.
Mice—NOD/SCID mice were bred and housed as previously described [Kollet (2001) Blood 97:3283-3291]. All experiments were approved by the animal care committee of the Weizmann Institute. Mice were sublethally irradiated (i.e., 375 cGy) as indicated, 24 hours prior to transplantation. Non-irradiated mice were used when local hepatic injection of SDF-1 was effected.
CXCR4 neutralization—Human CD34^+ cells were pre-incubated with anti human CXCR4 neutralizing mAb (10 μg/0.5×10^6 cells, 12G5, R&D) and were injected (0.5-0.6×10^6 CD34^+ cells per mouse) into the tail vein without washing. Mice were killed 4 hours, 16 hours, or 5-6 weeks following cell transplantation as indicated. Single cell suspensions of liver tissues were washed thoroughly with PBS. Homing of human cells was determined as described [Kollet (2001) Blood 97:3283-3291], acquiring 1.5×10^6 cells/sample.

[6] = tested on: CXCR4; experiment: Surface CXCR4 expression on CD34+ cells by FACS; format: cell-based, human; details: CB CD34+ cells, 5 hours incubation
Protocol: CB CD34^+ cells were incubated for 5 hours with RPMI growth medium and HT1080 conditioned medium. Cells were stained with isotype control antibody as a negative control (Isot), or with CXCR4 antibody. Representative data of 3 experiments is shown.
Human cells—Cord blood (CB) cells and adult mobilized peripheral blood (MPB) cells were obtained after informed consent in accordance with procedures approved by the human ethics committee of the Weizmann Institute. CD34^+ cell enrichment was effected using magnetic bead separation as previously described [Kollet (2001) Blood 97:3283-3291]. CXCR4 expression was determined by flow cytometry using purified anti human CXCR4 (clone 12G5, R&D, Minneapolis, Minn.) and secondary F(ab′)2 fragment of goat anti mouse IgG FITC (Jackson, West Grove, Pa.).

With `ClC(Cl)(Cl)Cl` [CCl4, Carbon tetrachloride] the “homing of human CD34+ cells to the injured liver” value [1] was “rapidly induced homing”, the “CXCR4 expression on human MNC cells in the circulation” value [2] was “increased level of CXCR4 expression” and the “MMP-9 expression in the liver” value [3] was “emergence of MMP-9 expression”. For the same molecule, the “activity of MMP-2 in the liver” value [3] was “increased activity” and the “recruitment of human colony forming progenitors from bone marrow to the circulation” value [4] was “induced the recruitment”.

“SDF-1: chemokine stromal derived factor, ligand of CXCR4” was tested, and the “homing of CD34+ progenitors to the liver” value [5] was “increased the homing”.

B1: purified MMP-2: purified recombinant MMP-2 (protein, UniProt P08253 110-660, looked up)
72 kDa type IV collagenase: YNFFPRKPKWDKNQITYRIIGYTPDLDPETVDDAFARAFQVWSDVTPLRFSRIHDGEADIMINFGRWEHGDGYPFDGKDGLLAHAFAPGTGVGGDSHFDDDELWTLGEGQVVRVKYGNADGEYCKFPFLFNGKEYNSCTDTGRSDGFLWCSTTYNFEKDGKYGFCPHEALFTMGGNAEGQPCKFPFRFQGTSYDSCTTEGRTDGYRWCGTTEDYDRDKKYGFCPETAMSTVGGNSEGAPCVFPFTFLGNKYESCTSAGRSDGKMWCATTANYDDDRKWGFCPDQGYSLFLVAAHEFGHAMGLEHSQDPGALMAPIYTYTKNFRLSQDDIKGIQELYGASPDIDLGTGPTPTLGPVTPEICKQDIVFDGIAQIRGEIFFFKDRFIWRTVTPRDKPMGPLLVATFWPELPEKIDAVYEAPQEEKAVFFAGNEYWIYSASTLERGYPKPLTSLGLPPDVQRVDAAFNWSKNKKTYIFAGDKFWRYNEVKKKMDPGFPKLIADAWNAIPDNLDAVVDLQGGGHSYFFKGAYYLKLENQSLKSVKFGSIKSDWLGC
With B1 the “surface CXCR4 expression on enriched human CD34+ cells” value [6] was “upregulation of CXCR4”.
